Tests used:
Assay in all cases: relative viability (nuclei count vs DMSO), 5 days (fraction); higher = more cells survive
NCI-H2087 = system: NCI-H2087
How it was run: (§1)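 Relative viability is defined as nuclei in treated wells over nuclei in vehicle wells. Duplicate plates were run and medians reported. Lung cancer cell lines in 1536-well plates were dosed by pin tool one day after seeding, with one drug or with a fixed anchor-drug dose plus five library-drug doses (not always all listed) in √10 steps, and nuclei were counted after 5 days.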

RERF-LC-KJ = system: RERF-LC-KJ
How it was run: as §1

NCI-H520 = system: NCI-H520
How it was run: as §1

NCI-H2126 = system: NCI-H2126
How it was run: as §1

H3255 = system: H3255
How it was run: as §1

NCI-H650 = system: NCI-H650
How it was run: as §1

NCI-H661 = system: NCI-H661
How it was run: as §1

LC-2-ad = system: LC-2-ad
How it was run: as §1

EPLC-272H = system: EPLC-272H
How it was run: as §1

NCI-H23 = system: NCI-H23
How it was run: as §1

HCC-78 = system: HCC-78
How it was run: as §1

NCI-H1915 = system: NCI-H1915
How it was run: as §1

NCI-H2405 = system: NCI-H2405
How it was run: as §1

HCC-827 = system: HCC-827
How it was run: as §1

201T = system: 201T
How it was run: as §1

COR-L 105 = system: COR-L 105
How it was run: as §1

NCI-H1666 = system: NCI-H1666
How it was run: as §1

PC-14 = system: PC-14
How it was run: as §1

NCI-H647 = system: NCI-H647
How it was run: as §1

ChaGo-K-1 = system: ChaGo-K-1
How it was run: as §1

NCI-H2347 = system: NCI-H2347
How it was run: as §1

LCLC-97TM1 = system: LCLC-97TM1
How it was run: as §1

`O=c1cc(-c2cccc3c2Sc2ccccc2S3)oc(N2CCOCC2)c1` + N=C(N)NC(=N)NCCc1ccccc1 [Phenformin] (partner 250 µM) showed a relative viability (NCI-H2087; first compound 0.08 µM) of 0.47, a relative viability (NCI-H2087; first compound 0.253 µM) of 0.623 and a relative viability (NCI-H2087; first compound 0.8 µM) of 0.527. It also gave a relative viability (NCI-H2087; first compound 2.53 µM) of 0.398, a relative viability (NCI-H2087; first compound 8 µM) of 0.462 and a relative viability (RERF-LC-KJ; first compound 0.08 µM) of 0.4. For the same compound, the relative viability (RERF-LC-KJ; first compound 0.253 µM) was 0.426, the relative viability (RERF-LC-KJ; first compound 0.8 µM) was 0.465 and the relative viability (RERF-LC-KJ; first compound 2.53 µM) was 0.444. It also gave a relative viability (RERF-LC-KJ; first compound 8 µM) of 0.406, a relative viability (NCI-H520; first compound 0.08 µM) of 0.505 and a relative viability (NCI-H520; first compound 0.253 µM) of 0.507. It also gave a relative viability (NCI-H520; first compound 0.8 µM) of 0.479, a relative viability (NCI-H520; first compound 2.53 µM) of 0.372 and a relative viability (NCI-H520; first compound 8 µM) of 0.619. It also gave a relative viability (NCI-H2126; first compound 0.08 µM) of 0.53, a relative viability (NCI-H2126; first compound 0.253 µM) of 0.584 and a relative viability (NCI-H2126; first compound 0.8 µM) of 0.482. The relative viability (NCI-H2126; first compound 2.53 µM) was 0.517, the relative viability (NCI-H2126; first compound 8 µM) was 0.521 and the relative viability (H3255; first compound 0.08 µM) was 0.323. For the same compound, the relative viability (H3255; first compound 0.253 µM) was 0.393, the relative viability (H3255; first compound 0.8 µM) was 0.339 and the relative viability (H3255; first compound 2.53 µM) was 0.338. For the same compound, the relative viability (H3255; first compound 8 µM) was 0.39, the relative viability (NCI-H650; first compound 0.08 µM) was 0.386 and the relative viability (NCI-H650; first compound 0.253 µM) was 0.437. It also gave a relative viability (NCI-H650; first compound 0.8 µM) of 0.461, a relative viability (NCI-H650; first compound 8 µM) of 0.452 and a relative viability (NCI-H661; first compound 0.08 µM) of 0.269. The relative viability (NCI-H661; first compound 0.253 µM) was 0.26, the relative viability (NCI-H661; first compound 0.8 µM) was 0.271 and the relative viability (NCI-H661; first compound 2.53 µM) was 0.267. The relative viability (NCI-H661; first compound 8 µM) was 0.259, the relative viability (LC-2-ad; first compound 0.08 µM) was 0.557 and the relative viability (LC-2-ad; first compound 0.253 µM) was 0.576. It also gave a relative viability (LC-2-ad; first compound 0.8 µM) of 0.645, a relative viability (LC-2-ad; first compound 2.53 µM) of 0.558 and a relative viability (LC-2-ad; first compound 8 µM) of 0.592. The relative viability (EPLC-272H; first compound 0.08 µM) was 0.247, the relative viability (EPLC-272H; first compound 0.253 µM) was 0.333 and the relative viability (EPLC-272H; first compound 0.8 µM) was 0.318. The relative viability (EPLC-272H; first compound 2.53 µM) was 0.254, the relative viability (EPLC-272H; first compound 8 µM) was 0.255 and the relative viability (NCI-H23; first compound 0.08 µM) was 0.811. For the same compound, the relative viability (NCI-H23; first compound 0.253 µM) was 0.96, the relative viability (NCI-H23; first compound 0.8 µM) was 0.901 and the relative viability (NCI-H23; first compound 2.53 µM) was 0.714. It also gave a relative viability (NCI-H23; first compound 8 µM) of 0.959, a relative viability (HCC-78; first compound 0.08 µM) of 0.62 and a relative viability (HCC-78; first compound 0.253 µM) of 0.769. It also gave a relative viability (HCC-78; first compound 0.8 µM) of 0.638, a relative viability (HCC-78; first compound 2.53 µM) of 0.555 and a relative viability (HCC-78; first compound 8 µM) of 0.667. For the same compound, the relative viability (NCI-H1915; first compound 0.08 µM) was 0.37, the relative viability (NCI-H1915; first compound 0.253 µM) was 0.4 and the relative viability (NCI-H1915; first compound 0.8 µM) was 0.436. The relative viability (NCI-H1915; first compound 2.53 µM) was 0.355, the relative viability (NCI-H1915; first compound 8 µM) was 0.406 and the relative viability (NCI-H2405; first compound 0.08 µM) was 0.354. For the same compound, the relative viability (NCI-H2405; first compound 0.253 µM) was 0.372, the relative viability (NCI-H2405; first compound 0.8 µM) was 0.45 and the relative viability (NCI-H2405; first compound 2.53 µM) was 0.385. The relative viability (NCI-H2405; first compound 8 µM) was 0.415, the relative viability (HCC-827; first compound 0.08 µM) was 0.396 and the relative viability (HCC-827; first compound 0.253 µM) was 0.452. For the same compound, the relative viability (HCC-827; first compound 0.8 µM) was 0.402, the relative viability (HCC-827; first compound 2.53 µM) was 0.306 and the relative viability (HCC-827; first compound 8 µM) was 0.408. The relative viability (201T; first compound 0.08 µM) was 0.445, the relative viability (201T; first compound 0.253 µM) was 0.545 and the relative viability (201T; first compound 0.8 µM) was 0.423. The relative viability (201T; first compound 2.53 µM) was 0.427, the relative viability (201T; first compound 8 µM) was 0.498 and the relative viability (COR-L 105; first compound 0.08 µM) was 0.454. The relative viability (COR-L 105; first compound 0.253 µM) was 0.471, the relative viability (COR-L 105; first compound 0.8 µM) was 0.466 and the relative viability (COR-L 105; first compound 2.53 µM) was 0.507. The relative viability (COR-L 105; first compound 8 µM) was 0.47, the relative viability (NCI-H1666; first compound 0.08 µM) was 0.601 and the relative viability (NCI-H1666; first compound 0.253 µM) was 0.644. For the same compound, the relative viability (NCI-H1666; first compound 0.8 µM) was 0.578, the relative viability (NCI-H1666; first compound 2.53 µM) was 0.572 and the relative viability (NCI-H1666; first compound 8 µM) was 0.585. For the same compound, the relative viability (PC-14; first compound 0.08 µM) was 0.553, the relative viability (PC-14; first compound 0.253 µM) was 0.479 and the relative viability (PC-14; first compound 0.8 µM) was 0.54. For the same compound, the relative viability (PC-14; first compound 8 µM) was 0.746, the relative viability (NCI-H647; first compound 0.08 µM) was 0.572 and the relative viability (NCI-H647; first compound 0.253 µM) was 0.838. For the same compound, the relative viability (NCI-H647; first compound 0.8 µM) was 0.547, the relative viability (NCI-H647; first compound 2.53 µM) was 0.476 and the relative viability (NCI-H647; first compound 8 µM) was 0.487. The relative viability (ChaGo-K-1; first compound 0.08 µM) was 0.463, the relative viability (ChaGo-K-1; first compound 0.253 µM) was 0.53 and the relative viability (ChaGo-K-1; first compound 0.8 µM) was 0.56. It also gave a relative viability (ChaGo-K-1; first compound 2.53 µM) of 0.344, a relative viability (ChaGo-K-1; first compound 8 µM) of 0.509 and a relative viability (NCI-H2347; first compound 0.08 µM) of 0.541. The relative viability (NCI-H2347; first compound 0.253 µM) was 0.501, the relative viability (NCI-H2347; first compound 0.8 µM) was 0.416 and the relative viability (NCI-H2347; first compound 2.53 µM) was 0.279. It also gave a relative viability (NCI-H2347; first compound 8 µM) of 0.362, a relative viability (LCLC-97TM1; first compound 0.08 µM) of 0.403 and a relative viability (LCLC-97TM1; first compound 0.253 µM) of 0.361. It also gave a relative viability (LCLC-97TM1; first compound 0.8 µM) of 0.475, a relative viability (LCLC-97TM1; first compound 2.53 µM) of 0.418 and a relative viability (LCLC-97TM1; first compound 8 µM) of 0.496.

— the supplement of paper PMC10307832
